Experimental data from the supplement of paper PMC10307832.

What was measured:
Test in all cases: relative viability (nuclei count vs DMSO), 5 days (fraction); higher = more cells survive
BAY61-3606 + Dasatinib = compound: COC1=C(C=C(C=C1)C2=CC3=NC=CN3C(=N2)NC4=C(C=CC=N4)C(=O)N)OC [BAY61-3606] + Cc1nc(Nc2ncc(C(=O)Nc3c(C)cccc3Cl)s2)cc(N2CCN(CCO)CC2)n1 [Dasatinib] (partner 0.075 µM)
Summary of the method: (§1)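 For relative viability, nuclei counts in treated wells were divided by those in vehicle wells. Lung cancer cell lines had been pin-tool dosed in 1536-well plates the day after seeding and cultured for 5 days, then fixed and stained in one step (final 0.05% Triton X-100, 1% formaldehyde, 1 ug/ml Hoechst) and imaged at 4×. Doses were one drug alone or a fixed anchor-drug dose plus five library-drug doses (not always all listed) in √10 steps, and values are duplicate-plate medians.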

Doxorubicin + Pictilisib = compound: COc1cccc2c1C(=O)c1c(O)c3c(c(O)c1C2=O)C[C@@](O)(C(=O)CO)C[C@@H]3O[C@H]1C[C@H](N)[C@H](O)[C@H](C)O1 [Doxorubicin] + CS(=O)(=O)N1CCN(Cc2cc3nc(-c4cccc5[nH]ncc45)nc(N4CCOCC4)c3s2)CC1 [Pictilisib] (partner 1 µM)
Summary of the method: as §1

BAY61-3606 + Olaparib = compound: COC1=C(C=C(C=C1)C2=CC3=NC=CN3C(=N2)NC4=C(C=CC=N4)C(=O)N)OC [BAY61-3606] + O=C(c1cc(Cc2n[nH]c(=O)c3ccccc23)ccc1F)N1CCN(C(=O)C2CC2)CC1 [Olaparib] (partner 8 µM)
Summary of the method: as §1

Doxorubicin + Olaparib = compound: COc1cccc2c1C(=O)c1c(O)c3c(c(O)c1C2=O)C[C@@](O)(C(=O)CO)C[C@@H]3O[C@H]1C[C@H](N)[C@H](O)[C@H](C)O1 [Doxorubicin] + O=C(c1cc(Cc2n[nH]c(=O)c3ccccc23)ccc1F)N1CCN(C(=O)C2CC2)CC1 [Olaparib] (partner 8 µM)
Summary of the method: as §1

Cell Line: UMC-11
- relative viability (BAY61-3606 + Dasatinib; first compound 0.02 µM): 0.464
- relative viability (BAY61-3606 + Dasatinib; first compound 0.06325 µM): 0.587
- relative viability (BAY61-3606 + Dasatinib; first compound 0.2 µM): 0.568
- relative viability (BAY61-3606 + Dasatinib; first compound 0.6325 µM): 0.606
- relative viability (BAY61-3606 + Dasatinib; first compound 2 µM): 0.524
- relative viability (Doxorubicin + Pictilisib; first compound 0.001 µM): 0.849
- relative viability (Doxorubicin + Pictilisib; first compound 0.003162 µM): 0.927
- relative viability (Doxorubicin + Pictilisib; first compound 0.01 µM): 0.769
- relative viability (Doxorubicin + Pictilisib; first compound 0.03162 µM): 0.445
- relative viability (Doxorubicin + Pictilisib; first compound 0.1 µM): 0.369
- relative viability (BAY61-3606 + Olaparib; first compound 0.02 µM): 0.351
- relative viability (BAY61-3606 + Olaparib; first compound 0.06325 µM): 0.385
- relative viability (BAY61-3606 + Olaparib; first compound 0.2 µM): 0.268
- relative viability (BAY61-3606 + Olaparib; first compound 0.6325 µM): 0.643
- relative viability (BAY61-3606 + Olaparib; first compound 2 µM): 0.266
- relative viability (Doxorubicin + Olaparib; first compound 0.001 µM): 0.38
- relative viability (Doxorubicin + Olaparib; first compound 0.003162 µM): 0.401
- relative viability (Doxorubicin + Olaparib; first compound 0.01 µM): 0.322
- relative viability (Doxorubicin + Olaparib; first compound 0.03162 µM): 0.302
- relative viability (Doxorubicin + Olaparib; first compound 0.1 µM): 0.275
